# Results from patent publication US20160289651A1, “ULK1 COMPOSITIONS, INHIBITORS, SCREENING AND METHODS OF USE” (Salk Institute for Biological Studies, priority 2009, published 2016).
# Entries after “also recorded” stand apart in the source; their conditions may differ.
# Assays:
# [1] = test system: endogenous ULK1; assay: Immunoblot of endogenous ULK1 P-Ser555 in primary murine embryonic fibroblasts (MEFs); type: cell-based; details: wild-type vs AMPK-deficient, 2 mM AICAR for 1 h
# [2] = test system: ULK1; assay: Tandem mass spectrometry (LC/MS/MS) of phosphorylation sites on myc-ULK1 from HEK293T cells; type: cell-based, human
# Experimental: FIG. 7A is a diagram of all LC/MS/MS identified in vivo phosphorylation sites in human ULK1. Myc-ULK1 was transfected into human embryonic kidney (HEK)-293T cells, treated with 5 mM phenformin to reduce cellular ATP for 1 hour and immunoprecipitated with anti myc antibody. The IP was run out on SDS PAGE, stained with coomassie, and the band corresponding to myc-ULK1 was cut out, and isolated and subjected to tryptic digest and LC/MS/MS analysis. Three indicated sites matching the AMPK substrate motif were identified, all mapping to the serine-rich unstructured region between the N-terminal kinase domain and the conserved C-terminus that mediates ULK1 binding to its subunits Atg13 and FIP200.
# FIG. 7B is a bar graph of quantitative mass spec spectrometry (MS/MS TIC ratio quantification) data showing that tryptic peptides containing Phospho5er555 and Phospho-5er637 of ULK1 are induced by treatment of HEK293T cells with 5 mM phenformin for 1 h.
# Mass Spectrometry. Myc-ULK1 overexpressed in HEK293T cells was treated with vehicle or 5 mM phenformin for 1 hour, IP'd with anti myc antibody (Cell Signaling), run out on SDS-PAGE gel and coomassie stained. […] Peptide ions from AMPK predicted phosphorylation sites were also targeted in MS/MS mode for quantitative analyses. […]
# Relative Quantification of Phosphorylation Sites. […]
# [3] = test system: ULK1; assay: Immunoblot with phospho-specific antibodies against ULK1 Ser467 and Ser555 in transfected HEK293T cells; type: cell-based, human; details: HEK293T cells with myc-tagged ULK1, 1 mM phenformin for 1 h vs vehicle
# Experimental: FIGS. 1A-1F show ULK1 is a conserved substrate of AMPK. (A) Clustal alignment of four conserved sites in ULK1 and two sites in ULK2 matching the optimal AMPK substrate motif. (B) ULK1 and GST or GST-14-3-3 expression vectors were transfected into human embryonic kidney (HEK)293T cells, and placed in media containing […] STO-609 (STO), vehicle (veh), or 5 mM phenformin (Phen) for 1 h. Cell lysates and GST pulldowns were immunoblotted as indicated. […] (D) HEK293T cells transfected with myc-tagged wild-type ULK1 or indicated Serine-to-alanine ULK1 mutants were treated with either vehicle or 1 mM phenformin for 1 h, or were co-transfected with a constitutively active AMPKα1 (aa1-312) mammalian expression vector (11). Proteins from lysates were immunoblotted with phospho-specific antibodies as indicated. […] Phosphorylation of myc-ULK1 detected by immunoblotting with indicated phospho-specific antibodies. […]
# Cell lysis, immunoprecipitations, and mammalian autophagy analysis. […] Immunoprecipitated proteins were denatured by the addition of […] of sample buffer and boiling for 5 minutes, resolved by 8%-16% SDSPAGE, and analyzed by immunoblottina as described. […] Quantification of westerns blots was achieved using Kodak Multi Gage software and normalizing to the appropriate loading control (actin when comparing p62 or LC3, or total protein level when comparing phospho-specific antibodies). […]
# [4] = test system: endogenous ULK1; assay: Immunoblot of endogenous ULK1 Ser555 phosphorylation in primary murine hepatocytes; type: cell-based; details: wild-type vs AMPK-deficient, 2 mM metformin for 2 h
# Experimental: Data shown as mean+/−SEM. * p<0.01 (B) Primary hepatocytes derived from ULK1^+/+ or ULK1^+/− mice or AMPKa1^−/− a2^L/+ or AMPKa1^−/− a2^L/L as described in methods were placed in media containing 2 mM metformin (met) or vehicle (veh) for 2 h. Lysates were immunoblotted with the indicated antibodies.
# Primary hepatocytes were isolated. Briefly, livers were perfused with Hank's balanced salt solution (HESS, KCI, 5.4 mM; KH2PO4, 0.45 mM; NaCl, 138 mM; NaHCO2, 4.2 mM; Na2HPO4, 0.34 mM; glucose, 5.5 mM; HEPES, 1 M; EGTA, 50 mM; CaCl2, 50 mM; pH 7.4). Livers were washed at a rate of 5 ml/min using the portal vein before collagenase (0.025%) was added. Cell viability was assessed by the trypan blue exclusion test and was always higher than 60%. […]
# Cell lysis, immunoprecipitations, and mammalian autophagy analysis. […] Immunoprecipitated proteins were denatured by the addition of 20 pl of sample buffer and boiling for 5 minutes, resolved by 8%-16% SDSPAGE, and analyzed by immunoblottina as described. […] Quantification of westerns blots was achieved using Kodak Multi Gage software and normalizing to the appropriate loading control (actin when comparing p62 or LC3, or total protein level when comparing phospho-specific antibodies). […]
# [5] = test system: T1, myc-tagged catalytically inactive (KI: K46I) ULK1
# T1 sequence: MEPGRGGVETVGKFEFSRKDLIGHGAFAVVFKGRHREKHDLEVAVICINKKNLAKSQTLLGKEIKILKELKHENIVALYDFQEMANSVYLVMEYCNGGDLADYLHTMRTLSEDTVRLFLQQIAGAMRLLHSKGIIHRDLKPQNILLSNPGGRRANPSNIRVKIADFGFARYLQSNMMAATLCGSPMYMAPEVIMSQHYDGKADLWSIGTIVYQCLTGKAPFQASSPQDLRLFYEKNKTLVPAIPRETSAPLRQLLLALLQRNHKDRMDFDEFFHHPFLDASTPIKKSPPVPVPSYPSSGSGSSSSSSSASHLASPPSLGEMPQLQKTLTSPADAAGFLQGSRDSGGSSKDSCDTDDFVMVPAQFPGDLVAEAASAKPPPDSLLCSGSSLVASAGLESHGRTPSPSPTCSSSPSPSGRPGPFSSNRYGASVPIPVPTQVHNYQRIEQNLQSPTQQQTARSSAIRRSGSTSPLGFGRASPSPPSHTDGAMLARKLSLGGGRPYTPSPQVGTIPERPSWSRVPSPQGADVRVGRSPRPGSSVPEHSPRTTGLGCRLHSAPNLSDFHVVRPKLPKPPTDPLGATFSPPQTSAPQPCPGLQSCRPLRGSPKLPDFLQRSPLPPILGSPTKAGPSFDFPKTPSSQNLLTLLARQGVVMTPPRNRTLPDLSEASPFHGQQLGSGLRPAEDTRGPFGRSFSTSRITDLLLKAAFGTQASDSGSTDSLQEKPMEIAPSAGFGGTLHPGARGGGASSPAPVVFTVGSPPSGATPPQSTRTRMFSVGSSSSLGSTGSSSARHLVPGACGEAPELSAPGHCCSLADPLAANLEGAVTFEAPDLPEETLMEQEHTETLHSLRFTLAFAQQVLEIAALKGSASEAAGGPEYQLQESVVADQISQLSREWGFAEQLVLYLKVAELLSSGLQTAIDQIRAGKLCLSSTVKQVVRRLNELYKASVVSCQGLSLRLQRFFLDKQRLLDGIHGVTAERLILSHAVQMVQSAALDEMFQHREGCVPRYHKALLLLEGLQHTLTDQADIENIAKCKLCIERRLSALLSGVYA
# [6] = target: myc-tagged wild-type raptor (UniProt Q8N122)
# myc-tagged wild-type raptor, sequence (Q8N122 whole entry, looked up): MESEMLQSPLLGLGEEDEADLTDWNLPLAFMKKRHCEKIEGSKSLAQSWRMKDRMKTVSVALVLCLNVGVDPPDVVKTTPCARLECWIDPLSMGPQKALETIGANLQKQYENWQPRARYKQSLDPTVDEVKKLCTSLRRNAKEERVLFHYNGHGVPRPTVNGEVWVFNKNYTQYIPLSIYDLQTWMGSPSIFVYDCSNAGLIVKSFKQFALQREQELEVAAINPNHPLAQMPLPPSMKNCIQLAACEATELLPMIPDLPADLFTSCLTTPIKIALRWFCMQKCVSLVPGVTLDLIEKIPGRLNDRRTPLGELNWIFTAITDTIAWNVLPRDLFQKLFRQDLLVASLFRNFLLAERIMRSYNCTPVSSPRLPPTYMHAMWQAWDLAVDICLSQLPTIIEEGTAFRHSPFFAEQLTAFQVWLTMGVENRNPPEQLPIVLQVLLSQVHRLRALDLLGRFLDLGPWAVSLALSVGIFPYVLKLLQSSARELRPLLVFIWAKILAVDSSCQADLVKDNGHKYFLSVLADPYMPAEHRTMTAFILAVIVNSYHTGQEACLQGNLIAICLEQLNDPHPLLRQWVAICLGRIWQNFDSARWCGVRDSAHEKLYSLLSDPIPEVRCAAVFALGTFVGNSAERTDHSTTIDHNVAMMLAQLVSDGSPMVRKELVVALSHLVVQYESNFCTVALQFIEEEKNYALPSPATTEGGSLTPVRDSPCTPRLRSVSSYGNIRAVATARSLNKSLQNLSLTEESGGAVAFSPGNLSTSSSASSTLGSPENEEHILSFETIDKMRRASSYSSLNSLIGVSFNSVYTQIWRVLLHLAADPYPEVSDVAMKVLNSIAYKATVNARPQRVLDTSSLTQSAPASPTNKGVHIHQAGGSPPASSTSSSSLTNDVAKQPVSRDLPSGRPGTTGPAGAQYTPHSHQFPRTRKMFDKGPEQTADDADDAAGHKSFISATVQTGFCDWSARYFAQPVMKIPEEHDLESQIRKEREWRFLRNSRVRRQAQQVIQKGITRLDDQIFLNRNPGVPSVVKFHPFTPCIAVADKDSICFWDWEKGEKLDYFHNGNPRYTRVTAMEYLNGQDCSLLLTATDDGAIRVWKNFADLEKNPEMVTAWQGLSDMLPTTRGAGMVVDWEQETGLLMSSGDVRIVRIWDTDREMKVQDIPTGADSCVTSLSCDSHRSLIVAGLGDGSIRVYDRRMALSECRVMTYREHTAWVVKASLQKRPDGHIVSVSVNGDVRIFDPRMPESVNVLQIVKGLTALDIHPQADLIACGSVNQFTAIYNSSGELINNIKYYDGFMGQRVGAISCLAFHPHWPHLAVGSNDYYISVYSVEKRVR
compound,measurement,setting,value
NC(=O)c1ncn([C@@H]2O[C@H](CO)[C@@H](O)[C@H]2O)c1N [AICAR],phosphorylation of endogenous ULK1 on Ser555,[1],phosphorylation of endogenous ULK1 was observed on Ser555 in an AMPK-dependent manner; also recorded: phosphorylated on Ser555 in an AMPK-dependent manner
[H]/N=C(/N)N/C(=N/[H])NCCc1ccccc1 [phenformin],"tryptic peptides containing Phospho-Ser555 and Phospho-Ser637 of ULK1, quantitative mass spectrometry (MS/MS TIC ratio quantification)",[2]; 5 mM phenformin for 1 h,induced
same,"phosphorylation of ULK1 candidate AMPK sites Ser555, Thr574, Ser637 detected by tandem mass spectrometry","[2]; epitope-tagged ULK1, with or without 5 mM phenformin for 1 hour",all three were phosphorylated only after phenformin treatment
same,phosphorylation of ULK1 Ser467 and Ser555 (phospho-specific antibodies),[3],Phosphorylation of both sites was induced
CN(C)C(=N)N=C(N)N [metformin],phosphorylation of endogenous ULK1 Ser555,[4],Increased phosphorylation of endogenous ULK1 Ser555 was observed in wild-type but not AMPK-deficient hepatocytes
"purified active AMPK heterotrimer (partially purified rat liver, Millipore cat #14-305)","in vitro kinase assay, 32P incorporation",[5],"AMPK phosphorylated ULK1 to a greater extent than an established substrate, Raptor"
same,"in vitro kinase assay, 32P incorporation",[6],"AMPK phosphorylated ULK1 to a greater extent than an established substrate, Raptor"
